# Measured values: patent publication US11993571B2, “Indole derivatives as efflux pump inhibitors” (RUTGERS, THE STATE UNIVERSITY OF NEW JERSEY, priority 2017, dated 2024)
# Where a name gives a salt, the structure may show the parent alone.
# Tests used:
# [1] = test system: P. aeruginosa [ATCC 27853]; assay: Mouse septicemia model of infection; format: in vivo, Swiss Webster female mice; conditions: experiment #512, cefepime, 10 mg/ml b.i.d., 250 ul
# Procedure: A general method for the in vivo assessment of bacterial EPIs is complicated by the fact that that both the antibiotic and the EPI need to be present for synergy to be achieved. A general method was discovered that has proven to be effective in establishing the relative efficacy of bacterial EPIs in a mouse septicemia model. The bacterial EPI is administered initially intravenously to mice with septicemia, followed 5 minutes later by the intravenous administration or oral administration of the antibiotic. A second administration of the EPI is then administered subcutaneously after an additional 5 minutes to act as a booster, followed by the final administration of the antibiotic either intravenously or orally after the second administration of the EPI. […] In a few instances, a second regiment of both EPI and antibiotic as administered on day 1 was required after 24 hours to affect cures.
# Determination of the in vivo efficacy of bacterial efflux pump inhibitors (EPIs) can be efficiently determined using a mouse septicemia model of infection. The systemic infection is initiated by a 500 ul intraperitoneal injection of an inoculum containing bacteria (such as P. aeruginosa [ATCC 27853]) at a concentration of approximately 5×10^5 cells in 5% mucin in Swiss Webster female mice. […]
# P. aeruginosa ATCC 27853 = assay: Intrinsic MIC assay (CLSI broth microdilution); format: cell-based; conditions: Pseudomonas aeruginosa, ATCC27853
# Procedure: (§1) MIC assays were conducted in accordance with Clinical and Laboratory Standards Institute (CLSI) guidelines for broth microdilution.
# The intrinsic MIC of the experimental EPIs was tested with the method described. The 2-fold serial dilution begins with 100 μg/mL of tested compound in the first column of the 96-well plates. The following Gram-negative bacterial strains were included in these assays: […]
# [2] = test system: Pseudomonas aeruginosa ATCC 27853; assay: Standard EPI assay (MIC of levofloxacin or cefepime in absence and presence of the EPI); format: cell-based; conditions: P. aeruginosa ATCC 27853
# Procedure: as §1
# (§2) The EPI assay for the purposes of these studies represents a MIC assay in which the MIC of the antibiotic against the bacteria is tested in the presence of an experimental efflux pump inhibitor (EPI). […] Using serial dilutions of the EPI, its enhancement of antibiotic activity was then evaluated. […] For the evaluation of the efficacy of an EPI against bacteria that were pre-exposed to an antibiotic, the inoculum of bacteria that used was developed from a bacterial culture isolated as a single colony following exposure at ½ the MIIC of the antibiotic (so as to induce efflux pump expression), was to be used in combination with the EPI.
# In our standard EPI assay, the MIC of the test antibiotic is determined in the absence and presence of sub-inhibitory concentrations of the EPI. Initially, the sub-inhibitory concentration used was ½×MIC of the EPI. […] Similar methodology was employed to examine the synergy with Escherichia coli ATCC 25922 in the presence of varied concentrations of these EPIs using clarithromycin as the antibiotic.
# [3] = test system: P. aeruginosa ATCC 27853 pre-exposed to cefepime; assay: Pre-exposure bacterial EPI assay; format: cell-based, Pseudomonas aeruginosa
# Procedure: as §2
# The principle underlying this pre-exposure is that exposure of the bacteria to sub-inhibitory concentrations of the test antibiotic will induce expression of efflux pumps, if any, and may represent the scenario in vivo more accurately.
smiles,measurement,setting,value
"CC(C)C(N)CC[C@H](N)CNC(=O)c1cc2ccc(-c3ccc(F)cc3)cc2[nH]1 (stereo partly drawn) [Example 6, N-((2S)-2,5-diamino-6-methylheptyl)-6-(4-fluorophenyl)-1H-indole-2-carboxamide dihydrochloride]",% Survival (72 hr) Antibiotic + EPI,"[1]; Example 6, 3.0 mg/ml b.i.d.",100%
same,MIC,P. aeruginosa ATCC 27853,25 µg/mL
same,MIC of levofloxacin in the presence of EPI,[2]; 6.25 μg/mL of the EPI,0.063 µg/mL
same,reduction of the MIC of levofloxacin relative to the absence of EPI,[2]; 6.25 μg/mL of the EPI,32 fold
same,MIC of cefepime in the presence of EPI,[2]; 12.5 μg/mL of the EPI,1.0 µg/mL
same,decrease of the MIC of cefepime,[2]; 12.5 μg/mL of the EPI,2 fold
"NCCC[C@@H](N)CNC(=O)c1cc2ccc(-c3ccc(F)cc3)cc2[nH]1 [Example 20, (R)-5-(6-(4-fluorophenyl)-1H-indole-2-carboxamido)pentane-1,4-diaminium chloride]",MIC of cefepime against cefepime-exposed P. aeruginosa in the presence of EPI,[3]; 6.25 μg/mL of the EPI,0.5 µg/mL
same,reduction of the MIC of cefepime against cefepime-exposed P. aeruginosa,[3]; 6.25 μg/mL of the EPI,8 fold
"CO/N=C(\C(=O)N[C@@H]1C(=O)N2C(C(=O)[O-])=C(C[N+]3(C)CCCC3)CS[C@H]12)c1csc(N)n1 [cefepime, reference compound]",% Survival (72 hr) Antibiotic Only,[1]; mice infected with P. aeruginosa,25%
same,MIC,"[3]; Pseudomonas aeruginosa, ATCC27853, read-out: MIC of cefepime against P. aeruginosa pre-exposed to cefepime",16 µg/mL
"C[C@H]1COc2c(N3CCN(C)CC3)c(F)cc3c(=O)c(C(=O)O)cn1c23 [levofloxacin, reference compound]",MIC,"[2]; Pseudomonas aeruginosa, ATCC27853",1 µg/mL
